One data set deals with T1, PDGFRβ (Homo sapiens, UniProt P09619).
T1 construct: expressed in transfected cells; host or cells: porcine aorta endothelial (PAE) cells
The experiment in a line: PAE-PDGFRβ phosphorylation in PAE-PDGFRB cells assay. The data set is classed as cell-based. As to conditions: PAE cells overexpressing human PDGFRβ, PDGF-BB stimulated; read-out: PAE PDGFR autophos IC50. The essentials:
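PAE cells overexpressing human PDGFRβ, serum-starved 16 h (0.1% FBS), compound 1 h at 37° C (0.5% DMSO), then 1 μg/mL PDGF-BB with 2 mM Na3VO4 for 8 min. Receptor captured by anti-PDGFRβ, phosphotyrosine detected by HRP-PY20/TMB at 450 nm; IC50 by four-parameter fit.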

The next data set has as its system HUVEC. Nature of the data set: bFGF HUVEC proliferation. Conditions: bFGF stimulated HUVEC. It is filed as cell-based, human.
For data set [1], the system named is human umbilical vein endothelial cells (HUVEC). Nature of the data set: HUVEC+VEGF proliferation assay. The data set is classed as cell-based. Conditions: VEGF 6 ng/mL, MTT. The essentials:
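Proliferation driven by VEGF (final 6 ng/mL) was quantified by MTT reduction (A595) 72 h after stimulation. Passage 3-4 HUVEC were starved for 24 h in 1% FBS F12K and given test agent 1 h before VEGF, with DMSO at 0.1% final.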

The target of data set [2] is T2, unphosphorylated VEGF-R2Δ50 (FLVK) (Homo sapiens, UniProt P35968, DEL940-989/E990V).
T2 construct: VEGF-R2Δ50 contains residues 806-939 and 990-1171; made in house; host or cells: baculovirus/insect cell system
T2 sequence (P35968 with tags, fused parts or gaps DEL940-989/E990V limits assumed): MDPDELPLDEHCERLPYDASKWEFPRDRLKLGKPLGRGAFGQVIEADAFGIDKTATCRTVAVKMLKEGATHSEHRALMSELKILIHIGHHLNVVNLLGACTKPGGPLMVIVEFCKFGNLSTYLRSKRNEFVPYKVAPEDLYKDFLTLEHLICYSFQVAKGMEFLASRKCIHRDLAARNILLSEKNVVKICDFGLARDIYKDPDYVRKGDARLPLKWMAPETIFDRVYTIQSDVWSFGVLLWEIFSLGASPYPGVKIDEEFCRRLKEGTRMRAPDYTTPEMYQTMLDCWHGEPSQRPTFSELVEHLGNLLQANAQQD
The experiment in a line: VEGF-R2 coupled spectrophotometric assay, unphosphorylated construct (FLVK). It is filed as biochemical. Conditions: for inhibition at 0.05 µM: percent inhibition at 50 nM. The essentials:
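Continuous coupled assay (PEP, PK, LDH; NADH loss at 340 nm) in 200 mM HEPES pH 7.5 with 3 mM ATP, 20 mM poly(E4Y1), 60 mM MgCl2 plus 2 mM MnCl2, started with 5-40 nM non-autophosphorylated VEGF-R2Δ50. Ki values from activity across compound concentrations, Morrison fit.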

Another data set can be described thus: Mouse PK assay. It is filed as in vivo, B6 female mice. Conditions: po. The method, then:
The pharmacokinetics (e.g., absorption and elimination) of drugs in mice were analyzed using the following experiment. Test compounds were formulated as a suspension in a 30:70 (PEG 400: acidified H2O) vehicle. This solution was administered orally (p.o.) and intraperitoneally (i.p.) at 50 mg/kg to two distinct groups (n=4) of B6 female mice. Blood samples were collected via an orbital bleed at time points: 0 hour (pre-dose), 0.5 hr, 1.0 hr, 2.0 hr, and 4.0 hr post dose. Plasma was obtained from each sample by centrifugation at 2500 rpm for 5 min. Test compound was extracted from the plasma by an organic protein precipitation method. For each time bleed, 50 μL of plasma was combined with 1.0 mL of acetonitrile, vortexed for 2 min. and then spun at 4000 rpm for 15 min. to precipitate the protein and extract out the test compound. Next, the acetonitrile supernatant (the extract containing test compound) was poured into new test tubes and evaporated on a hot plate (25° C.) under a steam of N2 gas. To each tube containing the dried test compound extract, 125 μL of mobile phase (60:40, 0.025 M NH4H2PO4+2.5 mL/L TEA:acetonitrile) was added. The test compound was resuspended in the mobile phase by vortexing and more protein was removed by centrifugation at 4000 rpm for 5 min. Each sample was poured into an HPLC vial for test compound analysis on an Hewlett Packard 1100 series HPLC with UV detection. From each sample, 95 μL was injected onto a Phenomenex-Prodigy reverse phase C-18, 150×3.2 mm column and eluted with a 45-50% acetonitrile gradient run over 10 min. Test-compound plasma concentrations (μg/mL) were determined by a comparison to standard curve (peak area vs. conc. μg/mL) using known concentrations of test compound extracted from plasma samples in the manner described above. Along with the standards and unknowns, three groups (n=4) of quality controls (0.25 μg/mL, 1.5 μg/mL, and 7.5 μg/mL) were run to insure the consistency of the analysis. […] The quantitated test samples were plotted for visual display using Kaleidagraph software and their pharmacokinetic parameters were determined using WIN NONLIN software.

The next data set has as its target T3, KDR (VEGFR2) (Homo sapiens, UniProt P35968).
T3 construct: expressed in transfected cells; host or cells: porcine aorta endothelial (PAE) cells
The experiment in a line: KDR (VEGFR2) phosphorylation in PAE-KDR cells assay. The data set is classed as cell-based. As to conditions: PAE cells overexpressing human KDR, VEGF stimulated; read-out: PAE KDR autophos IC50. On the procedure:
This assay determines the ability of a test compound to inhibit the autophosphorylation of KDR in porcine aorta endothelial (PAE)-KDR cells. PAE cells that overexpress human KDR were used in this assay. The cells were cultured in Ham's F12 media supplemented with 10% fetal bovine serum (FBS) and 400 ug/mL G418. Thirty thousands cells were seeded into each well of a 96-well plate in 75 μL of growth media and allowed to attach for 6 hours at 37° C. Cells were then exposed to the starvation media (Ham's F12 media supplemented with 0.1% FBS) for 16 hours. After the starvation period was over, 10 μL of test agent in 5% DMSO in starvation media were added to the test wells and 10 μL of the vehicle (5% DMSO in starvation media) were added into the control wells. The final DMSO concentration in each well was 0.5%. Plates were incubated at 37° C. for 1 hour and the cells were then stimulated with 500 ng/ml VEGF (commercially available from R & D System) in the presence of 2 mM Na3VO4 for 8 minutes. The cells were washed once with 1 mm Na3VO4 in HBSS and lysed by adding 50 μL per well of lysis buffer. One hundred μL of dilution buffer were then added to each well and the diluted cell lysate was transferred to a 96-well goat ant-rabbit coated plate (commercially available from Pierce) which was pre-coated with Rabbit anti Human Anti-flk-1 C-20 antibody (commercially available from Santa Cruz). The plates were incubated at room temperature for 2 hours and washed seven times with 1% Tween 20 in PBS. HRP-PY20 (commercially available from Santa Cruz) was diluted and added to the plate for a 30-minute incubation. Plates were then washed again and TMB peroxidase substrate (commercially available from Kirkegaard & Perry) was added for a 10-minute incubation. One hundred μL of 0.09 N H2SO4 was added to each well of the 96-well plates to stop the reaction. Phosphorylation status was assessed by spectrophotometer reading at 450 nm. IC50 values were calculated by curve fitting using a four-parameter analysis.

pIC50, pKi: −log10 of the molar value.

T1 sequence (P09619 33-1106): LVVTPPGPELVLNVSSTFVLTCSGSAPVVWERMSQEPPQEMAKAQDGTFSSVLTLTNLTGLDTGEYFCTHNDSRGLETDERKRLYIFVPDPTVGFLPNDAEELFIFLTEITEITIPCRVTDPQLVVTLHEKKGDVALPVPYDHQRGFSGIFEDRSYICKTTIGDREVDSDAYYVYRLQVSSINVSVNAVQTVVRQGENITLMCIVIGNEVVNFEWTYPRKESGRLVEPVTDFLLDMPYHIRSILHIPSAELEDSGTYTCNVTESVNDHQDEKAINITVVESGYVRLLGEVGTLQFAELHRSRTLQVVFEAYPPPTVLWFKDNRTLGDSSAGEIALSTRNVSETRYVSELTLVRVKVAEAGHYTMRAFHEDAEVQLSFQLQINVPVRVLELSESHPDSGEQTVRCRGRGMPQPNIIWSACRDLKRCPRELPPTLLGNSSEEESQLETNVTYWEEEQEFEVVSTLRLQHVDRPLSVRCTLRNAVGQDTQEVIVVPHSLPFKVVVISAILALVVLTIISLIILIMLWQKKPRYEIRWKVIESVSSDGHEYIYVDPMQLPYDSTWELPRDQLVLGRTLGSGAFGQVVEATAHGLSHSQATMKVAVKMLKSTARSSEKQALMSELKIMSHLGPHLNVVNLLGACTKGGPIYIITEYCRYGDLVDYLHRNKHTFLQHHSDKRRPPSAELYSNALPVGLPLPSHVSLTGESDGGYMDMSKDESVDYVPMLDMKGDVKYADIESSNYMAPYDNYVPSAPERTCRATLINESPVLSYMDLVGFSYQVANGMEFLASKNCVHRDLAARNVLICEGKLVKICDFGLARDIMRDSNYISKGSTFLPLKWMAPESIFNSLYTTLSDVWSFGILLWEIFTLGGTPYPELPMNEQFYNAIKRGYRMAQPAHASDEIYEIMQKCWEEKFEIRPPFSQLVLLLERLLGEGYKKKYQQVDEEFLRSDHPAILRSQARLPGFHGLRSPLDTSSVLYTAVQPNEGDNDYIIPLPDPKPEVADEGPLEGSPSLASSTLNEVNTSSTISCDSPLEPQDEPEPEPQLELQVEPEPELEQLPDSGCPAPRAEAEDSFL
T3 sequence (P35968 20-1356): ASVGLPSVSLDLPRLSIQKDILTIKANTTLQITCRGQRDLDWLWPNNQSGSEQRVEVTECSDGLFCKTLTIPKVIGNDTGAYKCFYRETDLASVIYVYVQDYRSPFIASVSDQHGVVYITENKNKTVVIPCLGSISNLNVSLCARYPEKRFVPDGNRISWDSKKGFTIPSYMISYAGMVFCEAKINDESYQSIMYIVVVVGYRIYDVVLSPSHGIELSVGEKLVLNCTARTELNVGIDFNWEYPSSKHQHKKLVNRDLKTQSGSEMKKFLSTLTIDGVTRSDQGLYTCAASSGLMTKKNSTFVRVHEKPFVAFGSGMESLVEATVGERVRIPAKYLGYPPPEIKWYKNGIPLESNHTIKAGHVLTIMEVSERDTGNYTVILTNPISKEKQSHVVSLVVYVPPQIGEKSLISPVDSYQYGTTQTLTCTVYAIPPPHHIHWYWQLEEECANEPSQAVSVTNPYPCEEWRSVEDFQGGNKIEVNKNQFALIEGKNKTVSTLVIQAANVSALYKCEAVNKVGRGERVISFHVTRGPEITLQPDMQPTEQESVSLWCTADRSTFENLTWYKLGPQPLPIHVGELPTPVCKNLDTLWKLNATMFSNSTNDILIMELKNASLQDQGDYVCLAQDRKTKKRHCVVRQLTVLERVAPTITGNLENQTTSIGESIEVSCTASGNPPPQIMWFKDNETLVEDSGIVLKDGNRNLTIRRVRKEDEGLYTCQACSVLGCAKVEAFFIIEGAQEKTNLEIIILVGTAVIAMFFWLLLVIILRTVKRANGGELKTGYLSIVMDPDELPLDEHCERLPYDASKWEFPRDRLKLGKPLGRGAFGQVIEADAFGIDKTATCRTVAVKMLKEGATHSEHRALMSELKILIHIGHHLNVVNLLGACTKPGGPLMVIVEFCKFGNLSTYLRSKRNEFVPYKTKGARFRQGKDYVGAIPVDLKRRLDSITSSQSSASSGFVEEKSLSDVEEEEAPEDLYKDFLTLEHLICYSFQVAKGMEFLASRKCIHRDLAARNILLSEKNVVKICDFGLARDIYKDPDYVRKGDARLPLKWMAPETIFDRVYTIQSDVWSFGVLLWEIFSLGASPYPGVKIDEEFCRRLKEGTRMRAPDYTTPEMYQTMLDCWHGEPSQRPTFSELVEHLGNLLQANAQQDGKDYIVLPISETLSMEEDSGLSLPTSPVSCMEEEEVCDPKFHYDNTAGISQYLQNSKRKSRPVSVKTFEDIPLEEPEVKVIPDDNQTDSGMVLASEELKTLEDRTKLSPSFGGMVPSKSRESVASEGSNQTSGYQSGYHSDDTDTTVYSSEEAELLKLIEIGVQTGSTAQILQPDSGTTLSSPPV

For “5-[2-(3S-Methoxy-pyrrolidine-1-carbonyl)-thieno[3,2-b]pyridin-7-ylamino]-2-methyl-2,3-dihydro-indole-1-carboxylic acid methylamide [Example 1u]”, the values for the pIC50 (at PDGFRβ; in the data set with HUVEC; in data set [1] (72 hours)) were less than 7.00, 5.31 and less than 8.00, respectively.

As to `CNC(=O)n1c(C)cc2cc(Nc3ccnc4cc(C(=O)N5CC[C@H](O)C5)sc34)ccc21` [Example 1i, 5-[2-(3S-Hydroxy-pyrrolidine-1-carbonyl)-thieno[3,2-b]pyridin-7-ylamino]-2-methyl-indole-1-carboxylic acid methylamide], the pIC50 – broadly, −log10 of the IC50, conventionally taken in molar units – on PDGFRβ is roughly 6.00; in the data set with HUVEC (Homo sapiens, HUVEC), 7.35; in data set [1] (Homo sapiens, HUVEC, 72 h), 8.99. For the same compound, the pKi (commonly the negative decadic logarithm of the Ki, by convention in mol/L) in data set [2] is 9.16. Also, at 0.05 µM the inhibition in data set [2] was 93%.

Consider `C#CCNC(=O)n1c(C)cc2cc(Nc3ccnc4cc(C(=O)N5CC[C@@H](OC)C5)sc34)ccc21` [Example 1p, 5-[2-(3R-Methoxy-pyrrolidine-1-carbonyl)-thieno[3,2-b]pyridin-7-ylamino]-2-methyl-indole-1-carboxylic acid prop-2-ynylamide], for which the pIC50 is 7.25 on PDGFRβ and 6.92 in the data set on HUVEC (Homo sapiens, HUVEC). In addition, the AUC (in general, concentration integrated over time) in the data set “Mouse PK assay” (female, B6, mouse, plasma, 50 mg/kg) amounted to 2530 ng·h/mL. In the data set “Mouse PK assay” (female, B6, mouse, plasma, 50 mg/kg, p.o., 50 mg/kg, read-out: Mouse Cmax, po ng-h/mL), the Cmax was 1230 ng/mL. For the same compound, the “Mouse Cmin, po” value in “Mouse PK assay” is 34 ng/mL. The pKi in data set [2] is 9.70. Also, the inhibition (as a rule, how much of the control response was suppressed) at 0.05 µM in data set [2] came out at 93%.

The compound `COC[C@@H]1C[C@@H](O)CN1C(=O)c1cc2nccc(Nc3ccc4c(c3)cc(C)n4C(=O)NC3CC3)c2s1` [Example 3h] had a pIC50 in the data set with HUVEC (Homo sapiens, HUVEC) of 6.65. In addition, in data set [1] (Homo sapiens, HUVEC, 72 h), the pIC50 is 8.71. In data set [2], the pKi is 8.92 and testing at 0.05 µM gave an inhibition of 95%.

Turning to `CNC(=O)n1c(C)cc2cc(Oc3ccnc4cc(C(=O)N(C)CCO)sc34)ccc21` [Example 3n, 7-(2-Methyl-1-methylcarbamoyl-1H-indol-5-yloxy)-thieno[3,2-b]pyridine-2-carboxylic acid (2-hydroxy-ethyl)-methyl-amide], the pIC50 is 7.12 at PDGFRβ; 7.06 in the data set on HUVEC (Homo sapiens, HUVEC); 9.57 in data set [1] (Homo sapiens, HUVEC, 72 h). The compound further showed a negative-log Ki (pKi) in data set [2] of 9.30. The compound further registered an inhibition at 0.05 µM in data set [2] of 88%.

As for `CNC(=O)n1c(C)cc2cc(Oc3ccnc4cc(C(=O)N5CC(F)(F)C[C@H]5CO)sc34)ccc21` [Example 3p, 5-[2-(4,4-Difluoro-2-hydroxymethyl-pyrrolidine-1-carbonyl)-thieno[3,2-b]pyridin-7-yloxy]-2-methyl-indole-1-carboxylic acid methyl-amide], the pIC50 at PDGFRβ was 6.67; in the data set on HUVEC (Homo sapiens, HUVEC) it was 6.64; in data set [1] (Homo sapiens, HUVEC, 72 h), 9.48. The same compound had a pKi in data set [2] of 9.01. The same compound gave an inhibition at 0.05 µM in data set [2] of 81%.

In the case of `CNC(=O)n1c(C)c(Cl)c2c(F)c(Oc3ccnc4cc(C(=O)N5CC[C@H](OC)C5)sc34)ccc21` [Example 6b, 3-Chloro-4-fluoro-5-[2-(3S-methoxy-pyrrolidine-1-carbonyl)-thieno[3,2-b]pyridin-7-yloxy]-2-methyl-indole-1-carboxylic acid methylamide], the pIC50 on PDGFRβ is 7.67; on KDR (VEGFR2), 9.02; in data set [1] (Homo sapiens, HUVEC, 72 h) it was 8.84. Besides, in data set [2], the pKi is 9.19. For the same compound, the inhibition at 0.05 µM in data set [2] amounted to 99%.

As to `CO[C@H]1CCN(C(=O)c2cc3nccc(Oc4ccc5c(c4F)c(Cl)c(C)n5C(=O)NC4CC4)c3s2)C1` [Example 6c, 3-Chloro-4-fluoro-5-[2-(3S-methoxy-pyrrolidine-1-carbonyl)-thieno[3,2-b]pyridin-7-yloxy]-2-methyl-indole-1-carboxylic acid cyclopropyl-amide], the pIC50 at PDGFRβ is 7.49; on KDR (VEGFR2), 8.90; in data set [1] (Homo sapiens, HUVEC, 72 h), 9.00. For the same compound, the pKi in data set [2] was 9.16. In data set [2], testing at 0.05 µM gave an inhibition of 97%.

On to `CO[C@H]1CN(C(=O)c2cc3nccc(Oc4ccc5c(c4)cc(C)n5C(=O)NCCO)c3s2)CC1F` (stereo partly drawn) [Example 8k, 5-[(2-{[(4S)-3-Fluoro-4-methoxypyrrolidin-1-yl]carbonyl}thieno[3,2b]pyridin-7-yl)oxy]-N-(2-hydroxyethyl)-2-methyl-1H-indole-1-carboxamide], for which the pIC50 with HUVEC (Homo sapiens, HUVEC) was 7.74. Besides, in data set [1] (Homo sapiens, HUVEC, 72 h), the negative logarithm of the IC50 (pIC50) was 9.49. In data set [2], the pKi was 9.06 and 0.05 µM produced 95% inhibition.

With `Cc1cc2cc(Oc3ccnc4cc(C(=O)N5CCC5)sc34)ccc2n1C(=O)NCCCO` [Example 8n, 5-[2-(Azetidine-1-carbonyl)-thieno[3,2-b]pyridin-7-yloxy]-2-methyl-indole-1-carboxylic acid (3-hydroxy-propyl)-amide], the negative logarithm of the IC50 (pIC50) at PDGFRβ was 7.99; with HUVEC (Homo sapiens, HUVEC) it was 7.24. This compound gave a pKi in data set [2] of 10.05. In data set [2], at 0.05 µM the inhibition was 97%.

With `CNC(=O)n1c(C)cc2cc(Oc3ccnc4cc(C(=O)N5CC(O)C5)sc34)ccc21` [Example 8o, 5-[2-(3-Hydroxy-azetidine-1-carbonyl)-thieno[3,2-b]pyridin-7-yloxy]-2-methyl-indole-1-carboxylic acid methylamide], the pIC50 in the data set on HUVEC (Homo sapiens, HUVEC) is 7.21; in data set [1] (Homo sapiens, HUVEC, 72 h), 8.90. Besides, the pKi in data set [2] is 8.35. The same compound returned an inhibition at 0.05 µM in data set [2] of 74%.

For `CO[C@H]1CCN(C(=O)c2cc3nccc(Oc4ccc5c(c4)cc(C)n5C(=O)NCCCO)c3s2)C1` [Example 9b, 5-[2-(3S-Methoxy-pyrrolidine-1-carbonyl)-thieno[3,2-b]pyridin-7-yloxy]-2-methyl-indole-1-carboxylic acid (3-hydroxy-propyl)-amide], the pIC50 was 7.22 on PDGFRβ; 9.17 on KDR (VEGFR2); 9.48 in data set [1] (Homo sapiens, HUVEC, 72 h). This compound also had a pKi in data set [2] of 9.31. This compound also gave an inhibition at 0.05 µM in data set [2] of 97%.

The values above are taken from patent US6833456B2, “Indolyl-urea derivatives of thienopyridines useful as antiangiogenic agents, and methods for their use” (Agouron Pharmaceuticals, Inc., priority 2002, dated 2004).
